Article PMC6245648 (Chemical research in toxicology, 2016)
Where two headings read alike, the source gives them in different places.

Assays:
Type in all cases: cell-based
[1] = target: T1, mitochondrial complex I (NADH: ubiquinone oxidoreductase) (Rattus norvegicus, UniProt A6K8N6+P03889+Q641Y2); details: read-out: % inhibition at 200 μM
[2] = target: T1, mitochondrial complex I (NADH: ubiquinone oxidoreductase); details: read-out: % inhibition at 10 μM
[3] = target: T1, mitochondrial complex I (NADH: ubiquinone oxidoreductase); details: read-out: % inhibition at 10 μM; remark: listed apart in the source
[4] = target: T1, mitochondrial complex I (NADH: ubiquinone oxidoreductase); details: read-out: % inhibition at 10 μM; remark: listed apart in the source
[5] = target: T1, mitochondrial complex I (NADH: ubiquinone oxidoreductase); details: read-out: % inhibition at 10 μM; remark: listed apart in the source
[6] = target: T1, mitochondrial complex I (NADH: ubiquinone oxidoreductase); details: read-out: % inhibition at 10 μM; remark: listed apart in the source

Question: With C[n+]1ccc(-c2ccccc2)cc1 [A, 1-methyl-4-phenylpyridinium] as the compound, how does the inhibition at 200 µM [1] read?
Answer: 12.5%

Question: Which inhibition at 10 µM [2] does the source give for CCN1C(=Cc2ccc3ccccc3[n+]2CC)C=Cc2ccccc21 [B, 2,2’-cyanine] here?
Answer: 70.8%

Question: How did the inhibition at 10 µM [3] turn out when CCN1C=CC(=Cc2cc[n+](CC)c3ccccc23)c2ccccc21 [C, 4,4’-cyanine] was run?
Answer: 60.8%

Question: For CCN1C(=CC=Cc2oc3ccccc3[n+]2CC)Oc2ccccc21 [D, DiOC2(3)], which inhibition at 10 µM [4] is on record?
Answer: 79%

Question: Which inhibition at 10 µM [5] does the source give for CCCN1C(=CC=Cc2sc3ccccc3[n+]2CCC)Sc2ccccc21 [E, DiSC3(3)] here?
Answer: 83%

Question: With CCCN1C(=CC=CC=Cc2sc3ccccc3[n+]2CCC)Sc2ccccc21 [F, DiSC3(5)] as the compound, how does the inhibition at 10 µM [5] read?
Answer: 83%

Question: Which inhibition at 10 µM [6] does the source give for C=C(C)[C@H]1Cc2c(ccc3c2O[C@@H]2COc4cc(OC)c(OC)cc4[C@@H]2C3=O)O1 [H, rotenone] here?
Answer: 88%
